Experimental data as given in patent publication US12215098B2 (priority 2018, dated 2025).
“Also recorded” adds a separate entry of the source.

Experiments:
[1] = biological target: Glutathione-S-transferase-labeled FXR human protein (Homo sapiens (Human), UniProt Q96RI1); assay: FXR biochemical assay (alphascreen); details: FXR with biotin-labeled steroid receptor coactivator, read-out: EC50 (nM) Mean ± SEM, activation effect on FXR
Procedure: 1. […] The reference compound was prepared as a 400 μM DMSO solution, and then diluted 1.5-fold to 10 concentration points. […] 2. […] 3. […] 4. […] 5. […] 6.

[2] = system: NASH model (high-fat diet feeding and CCl4 induction); assay: In vivo efficacy assay, high-fat diet and CCl4 induced NASH model; set-up: species or system mice
Procedure: The model building in this assay included two steps: high-fat diet feeding and CCl4 induction. Firstly, the mice were fed with high-fat diet to induce non-alcoholic fatty liver. The mice with a body weight of >35 g were selected and continued to be fed with high-fat diet while being administered with 25% CCl4 ([…]) by intraperitoneal injection twice a week for four weeks.
The day when the administration of CCl4 was started was set as day 0, and the time when the administration of CCl4 was started was set as hour 0. On the day when the administration of CCl4 was started, the administration was started by intragastric gavage. […] The time point of the injection of CCl4 should be 4 hours or longer apart from the time point of the first administration of the day.
The healthy control group consisted of 6 normal mice, which were fed with ordinary diet during the assay, without CCl4 injection.
48 obese mice were used in the model group and the administration group. Each group consisted of 8 mice. After grouping, the mice were injected intraperitoneally with CCl4 and administered with different doses of drugs or vehicle, respectively.
The analysis software Graphpad Prism6 was used for comparation between two groups.
For the analysis of hepatic pathology in animal models of non-alcoholic steatohepatitis, the therapeutic effect of the compound on NAFLD was comprehensively evaluated in three aspects of hepatocyte steatosis, hepatocyte ballooming degeneration, and inflammation accumulation in hepatic lobule with the reference of clinicopathological diagnosis and evaluation criteria for NAFLD, and using NAFLD activity score (NAS).
All slices stained with Sirius red were wholly scanned by a Digital pathoscope 4S slide scanner. 2 fields of view were randomly selected under a 5× field of view, and 2 fields of view covered 85% of the liver tissue area. Image pro-plus 6.0 software was then used for quantitative analysis, and fibrosis deposition area in the slice was calculated.

[3] = Hygroscopicity study by dynamic vapor sorption (DVS); format: physicochemical; details: 25° C. and 80% RH
Procedure: Dynamic Vapor Sorption (DVS) Method Used in the Present Disclosure
Instrument model: SMS DVS Advantage dynamic vapor sorption apparatus
Test condition: The sample (10 to 15 mg) was placed in a DVS sample pan for testing.
The detailed DVS parameters were as follows:
Equilibration: dm/dt=0.01%/min (The shortest time: 10 min, and the longest time: 180 min)
Drying: Dried for 120 min at 0% RH
RH (%) test gradient: 10%
Range of RH (%) test gradient: 0%-90%-0%
The classification of hygroscopicity evaluation was as follows:
SMS DVS Advantage dynamic vapor sorption apparatus

[4] = Solid stability test (high temperature, high humidity, strong light; XRPD); format: physicochemical
Description: For the samples placed under high temperature and high humidity conditions, the vial opening was sealed with aluminum foil paper and small holes were punched in the aluminum foil paper to ensure that the sample can fully contact the ambient air. For the samples placed under strong light condition, the vial opening was sealed with aluminum foil paper. The samples placed under various conditions were sampled and tested for XRPD on the 5th day and 10th day, and the test results were compared with the initial test results on day 0.

[5] = 15 mg/kg, intragastric gavage once a day, 28 days, Mean±SEM
[6] = 7.5 mg/kg, intragastric gavage once a day, 28 days, Mean±SEM

Sequence of Glutathione-S-transferase-labeled FXR human protein (Q96RI1 whole entry): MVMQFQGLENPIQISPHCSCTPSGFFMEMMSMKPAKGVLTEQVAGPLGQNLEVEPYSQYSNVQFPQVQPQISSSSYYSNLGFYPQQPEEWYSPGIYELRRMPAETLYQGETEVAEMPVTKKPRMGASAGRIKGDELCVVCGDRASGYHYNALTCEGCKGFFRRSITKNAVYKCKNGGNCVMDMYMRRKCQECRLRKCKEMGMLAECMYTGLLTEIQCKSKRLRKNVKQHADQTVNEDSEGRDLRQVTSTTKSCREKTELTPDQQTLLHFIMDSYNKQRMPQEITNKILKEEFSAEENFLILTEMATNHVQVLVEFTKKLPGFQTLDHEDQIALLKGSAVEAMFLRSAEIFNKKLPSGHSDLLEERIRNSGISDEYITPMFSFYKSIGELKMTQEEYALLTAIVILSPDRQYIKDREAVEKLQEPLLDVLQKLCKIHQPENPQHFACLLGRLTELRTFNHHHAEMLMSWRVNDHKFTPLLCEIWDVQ

Compound | EC50 [1] [nM] | Hepatocyte ballooming degeneration score [2, 5] | NAS score [2, 5] | NAS score ([2]; 15 mg/kg, intragastric gavage once a day, 28 days, Mean±SEM, listed as PX104) | Classification of hygroscopicity [3] | ΔW, weight increase by moisture absorption [3] [%] | Crystal form (XRPD) ([4]; Day 0, initial) | Crystal form (XRPD) ([4]; High humidity (room temperature/relative humidity at 92.5%, open), Day 5) | Crystal form (XRPD) ([4]; High humidity (room temperature/relative humidity at 92.5%, open), Day 10) | Crystal form (XRPD) ([4]; High temperature (60° C., open), Day 5) | Crystal form (XRPD) ([4]; High temperature (60° C., open), Day 10) | Crystal form (XRPD) ([4]; Strong light (5000 lx, sealed), Day 5) | Crystal form (XRPD) ([4]; Strong light (5000 lx, sealed), Day 10) | Solid stability (in words) ([4]; high temperature, high humidity and strong light) | Hepatic fibrosis (fibrosis deposition area, Sirius red) [2, 6] | Hepatocyte ballooming degeneration score [2, 6] | Hepatic steatosis score [2, 5] | Hepatocyte ballooming degeneration score ([2]; 45 mg/kg, intragastric gavage once a day, 28 days, Mean±SEM, one mouse 0.17 determined as abnormal value) | Hepatic function and hepatic damage (in words) ([2]; conclusion of the assay)
O=C(O)c1ccnc(N2CC(O)(c3ccc(OCc4c(-c5c(Cl)cccc5Cl)noc4C4CC4)cc3Cl)C2)c1 [PX-104, reference compound] | 65.2 | 0.0 | 1.479 | significantly reduce the NAS score |  |  |  |  |  |  |  |  |  |  |  |  |  |  | 
O=C(O)c1cnc(N2C(=O)CCc3cc(OCc4c(-c5c(Cl)cccc5Cl)noc4C4CC4)ccc32)c(Cl)c1 |  |  |  |  | slightly hygroscopic | 0.5834 | Crystal form A | Crystal form A | Crystal form A | Crystal form A | Crystal form A | Crystal form A | Crystal form A | good stability; also recorded: stable |  |  |  |  | 
O=C(O)c1cnc(N2C(=O)CCc3cc(OCc4c(-c5c(Cl)cccc5Cl)noc4C4CC4)ccc32)c(Cl)c1 [compound of formula (I)] |  | 0.0 |  |  |  |  |  |  |  |  |  |  |  |  | 2.580 | 0.0 | 0.854 | 0.021^@ ± | significantly improve hepatic function and reduce hepatic damage
